Experimental data as given in patent US20210227854A1, “USE OF D-RIBOSE TO ENHANCE ADAPTATION TO PHYSICAL STRESS” (Bioenergy Life Science, Inc., priority 2014, published 2021).

Legend:
[1] = Heart rate (HR) during exercise sessions; assay type: in vivo, human; settings: for HR (bpm): 10 g/day, mean ± SD
Procedure: A high-intensity exercise protocol was designed as a double-blind, crossover study to assess the influence of D-Ribose adaptation to physical stress. Specifically, D-Ribose and a control (Dextrose) were administered on separate subjects at a dosage of ten grams per day (10 g/day). A variety of physiological parameters were measured in the subjects administered D-Ribose (DR) supplementation (i.e., the DR subjects) versus the subjects administered Dextrose (DEX) supplementation (i.e., the DEX subjects). To test D-ribose for adaptation, the twenty-six (26) adult subjects were further divided into two subgroups based on their fitness level (i.e., peak oxygen uptake (VO2 max) results. The first subgroup comprised subjects with higher VO2 max results (i.e., the “Fit Subgroup”) and the second subgroup comprised subjects with lower VO2 max results (i.e., the “Unfit Subgroup”). The Unfit Subgroup consisted of six (6) females and seven (7) males. The average age of the Unfit Subgroup was 27.7±3.4 years and the average peak VO2 of the Unfit Subgroup was 39.9±4.1 mL/kg/min. The Fit Subgroup consisted of four (4) females and nine (9) males. The average age of the Fit Subgroup was 27.6±3.5 year and the average peak VO2 of the Fit Subgroup was 52.2±4.3 mL/kg/min. The protocol of the double-blind crossover study involved an initial baseline assessment, followed by two separate day assessments after consuming either a DR or DEX supplement. Each exercise session entailed measurements of creatine kinase (CK), blood urea nitrogen (BUN), glucose, heart rate (HR), rate of perceived exertion (RPE), and power output (PO) measurements. Each exercise session consisted of six (6) ten-minute intervals of exercise on a cycle ergometer. During each ten-minute interval, the subject cycled for eight (8) minutes at a workload of approximately 60% of the subject's VO2 max, then immediately cycled for an additional two (2) minutes at a workload of approximately 80% VO2 max (approximately one workload above the subject's calculated lactate threshold). Cadence and power output were monitored at ten-minute intervals during each exercise session. At the end of the sixty-minute exercise session, each subject completed a two-minute performance task (time trial). This performance task required the subject to produce as much power as possible during the two-minute interval. Peak power, average power, and percent decline were assessed during this two-minute task trial. Workload for performance task was set at five percent (5%) of the subject's body weight. Heart rate was recorded using a Polar HR monitor. Blood glucose levels were measured using a Bayer glucose monitor. Blood lactate levels were measured by an AccuSport Lactate Analyzer. Creatine kinase and BUN were measured utilizing an Abaxis Piccolo analyzer. Power data from the time trial performance test was assessed with the Sports Medicine Industries (SMI) software package.

[2] = Blood glucose levels during exercise; assay type: in vivo, human; settings: mean (SD)
Procedure: A high-intensity exercise protocol was designed as a double-blind, crossover study to assess the influence of D-Ribose adaptation to physical stress. Specifically, D-Ribose and a control (Dextrose) were administered on separate subjects at a dosage of ten grams per day (10 g/day). A variety of physiological parameters were measured in the subjects administered D-Ribose (DR) supplementation (i.e., the DR subjects) versus the subjects administered Dextrose (DEX) supplementation (i.e., the DEX subjects). To test D-ribose for adaptation, the twenty-six (26) adult subjects were further divided into two subgroups based on their fitness level (i.e., peak oxygen uptake (VO2 max) results. The first subgroup comprised subjects with higher VO2 max results (i.e., the “Fit Subgroup”) and the second subgroup comprised subjects with lower VO2 max results (i.e., the “Unfit Subgroup”). The Unfit Subgroup consisted of six (6) females and seven (7) males. The average age of the Unfit Subgroup was 27.7±3.4 years and the average peak VO2 of the Unfit Subgroup was 39.9±4.1 mL/kg/min. The Fit Subgroup consisted of four (4) females and nine (9) males. The average age of the Fit Subgroup was 27.6±3.5 year and the average peak VO2 of the Fit Subgroup was 52.2±4.3 mL/kg/min. Physiologic parameters were measured and hydration was provided to the subjects during the exercise session. The same protocol for testing and hydration protocol was followed for both DR subjects and DEX subjects. Blood samples were drawn from each subject via a venipuncture technique at the following time periods: • Ten (10) minutes before commencement of exercise; • Twenty (20) minutes after the commencement of and during exercise; • Forty (40) minutes after the commencement of and during exercise; • Sixty (60) minutes after the commencement of and during exercise; and • Twenty-four (24) hours after the conclusion of exercise (twenty-five (25) hours after the commencement of exercise). Blood glucose was measured at all of the above time points except at twenty-four (24) hours post-exercise. Creatine kinase and BUN levels were measured at the pre-exercise (−10 min.) point during the three (3) days of exercise and twenty-four (24) hours post-exercise following the third (last) exercise session. Heart rate was recorded using a Polar HR monitor. Blood glucose levels were measured using a Bayer glucose monitor. Blood lactate levels were measured by an AccuSport Lactate Analyzer. Creatine kinase and BUN were measured utilizing an Abaxis Piccolo analyzer. Power data from the time trial performance test was assessed with the Sports Medicine Industries (SMI) software package.

SMILES	Average HR ([1]; Fit Subgroup)	HR (bpm) ([1]; Fit Subgroup)	Average HR ([1]; Unfit Subgroup)	HR (bpm) ([1]; Unfit Subgroup)	Blood glucose level during exercise ([2]; Fit Subgroup, 19.5)	Blood glucose level during exercise ([2]; Fit Subgroup, 39.5)	Blood glucose level during exercise ([2]; Fit Subgroup, 59.5)	Blood glucose level during exercise ([2]; Unfit Subgroup, 19.5)	Blood glucose level during exercise ([2]; Unfit Subgroup, 39.5)	Blood glucose level during exercise ([2]; Unfit Subgroup, 59.5)
O=C[C@H](O)[C@@H](O)[C@H](O)[C@H](O)CO [DEX, Dextrose, reference compound]	153±12 bpm	152.4 ± 11.7 bpm	153±17 bpm	152.0 ± 19.5 bpm	4.0 (0.6) mM/L	4.1 (0.7) mM/L	4.0 (0.6) mM/L	4.0 (0.5) mM/L	4.0 (0.5) mM/L	3.9 (0.6) mM/L
O=C[C@H](O)[C@H](O)[C@H](O)CO [DR, D-Ribose]	153±12 bpm	152.6 ± 11.9 bpm	152±20 bpm	151.5 ± 19.4 bpm	3.8 (0.5) mM/L	4.0 (0.5) mM/L	3.9 (0.5) mM/L	4.0 (0.6) mM/L	4.0 (0.6) mM/L	4.1 (0.7) mM/L
